Key:
[1] = tested on: A. fumigatus conidia; assay: Resazurin-based fungal viability assay; set-up: species or system Aspergillus fumigatus; conditions: for microbicidal activity: 1 min, conidia pre-opsonised with human SAP
Description: FIG. 12 depicts the therapeutic efficacy of SAP in treatment of invasive aspergillosis. a) b) c) survival of transiently immunosuppressed wt mice after injection with the indicated doses of AF conidia. The curve of untreated mice (n=3) with cyclophosphamide is also shown (a). Human SAP (4 mg/Kg) was injected at 2 h and 24 h after infection. a) AF 5.10^7, n=17; AF 5.10^7+SAP, n=15; b) AF 1.10^7, n=7; AF 1.10^7+SAP, n=8; c) AF 5.10^6, n=8; AF 5.10^6+SAP, n=10.***, P<0.005 SAP-treated vs. saline (Mantel-Cox test). One-way ANOVA, P<0.0001. d) lung CFU in mice treated with cyclophosphamide and infected with 1.10^7 AF conidia.*, P<0.05 (Mann-Whitney test). e) quantitative analysis of AF viability performed using a resazurin-based assay. Plasma (30%) from wt and Apcs^−/− mice were incubated (1 min) with 1.5×10^5 AF conidia pre-opsonized or not with SAP. Results are mean±SD of red fluorescence (excitation/emission 535/580-610 nm) intensity of the resazurin once reduced to resorufin within viable cells. Effect of Posaconazole (POC; 1 μM) exposure is also shown. Results are mean±SEM relative to the condition without serum (grey symbols) of two experiments performed with n=10 mice/group. […] AF viability assay performed in sera depleted from complement components. Figure summarizes one experiment out of 5 also conducted with serum 10%. Mean±SD.*, P<0.05; **, P<0.01 (unpaired t-test). g) and h) FACS analysis of MAC deposition on AF conidia (1×10^7) in presence of sera depleted from complement components (e) and the effect of SAP (f). Mean±SEM of 2 experiments performed out of 4. e, f,*, P<0.05;**, P<0.01;***, P<0.005;****, P<0.001; (Mann-Whitney test).
Fungal viability assay. Effect of SAP on A. fumigatus killing was evaluated by a resazurin-based cell viability assay as described (Mantovani et al., 2010). A volume of 10 μl PBS, pH 7.4, containing 1.5×10^5 conidia eventually opsonized with human SAP (100 μg/ml per 1×10^9 conidia, 1 h at r.t.) was placed into sterile round bottom Corning® 96-well polypropylene microplate and incubated for 1 and 30 min at 37° C. with 20 μl of 10 and 30% plasma-heparin from wt and Apcs^−/− mice or human serum and different complement component-depleted sera. After incubation, plates were immediately cooled on ice and cold-centrifuged (2000 rpm, 10 min at 4° C.), and then supernatant removed. Conidia not incubated with plasma or serum were used as a negative control. Conidia treated with the fungicide drug Posaconazole (POC; 1 μM) were considered as positive control in the assay. […] After 17 h reaction at 37° C., fluorescence (excitation/emission at ≈530-560/590 nm) intensity was measured by microplate reader Synergy™ H4 (BioTek, France). Results represent ratio of fluorescence intensity values relative to those measured in negative controls. […]

[2] = tested on: A. fumigatus; assay: Inflammatory response in BALFs after i.t. injection of Sap-opsonised conidia; format: in vivo; conditions: Apcs−/− mice, 16 h
Description: FIG. 5 depicts the rescue of susceptibility to A. fumigatus in SAP-deficient mice. a) b) c) d) i.t. injection of non-opsonised or Sap-opsonised AF conidia. a) survival of wt and Apcs^−/− mice. Wt, n=10; wt+Sap, n=10; Apcs^−/−, n=14; Apcs^−/−+Sap, n=13.****, P<0.0001, wt vs. Apcs^−/− or Apcs^−/− vs. Apcs^−/−+Sap (Mantel-Cox test). b) and c) levels of TNF-α (b) and MPO (c) in BALFs of mice (16 h). b),****, P<0.0001;**, P<0.01. c),***, P<0.0005. d, FACS analysis of neutrophil recruitment in lung (16 h). Mean±SEM.****, P<0.0001;*, P<0.05. b), c), d), Mean±SEM; Mann-Whitney test.
BALFs collection and analysis. BALFs were performed with 1.5 ml PBS, pH 7.4, containing protease inhibitors (Complete tablets, Roche Diagnostic; PMSF, Sigma-Aldrich) and 10 mM EDTA (Sigma-Aldrich) with a 22-gauge venous catheter. BALFs were centrifuged, and supernatants were collected for quantification of total protein content with Bradford's assay (Bio-RAD) and cytokines as described below. After erythrocyte lysis with ACK solution (pH 7.2; NH4Cl 0.15 M, KHCO3 10 mM, EDTA 0.1 mM), cells were resuspended in PBS, pH 7.4, containing 10 mM EDTA and 1% heat-inactivated fetal bovine serum (FCS; Sigma-Aldrich), stained with live and death dye (ThermoFisher Scientific-Molecular Probes) and analysed by BD FACS Canto™ II Flow Cytometer (BD Biosciences) with the following specific antibodies: peridinin chlorophyll protein complex (PerCP)—or brilliant violet (BV) 650-labelled anti-CD45 (#30-F11, IgG2b; 4 μg/ml); FITC- or phycoerythrin (PE)-CF594-labelled anti-Ly6G (#1A8, IgG2a; 4 μg/ml); allophycocyanin (APC)—or BV421-labelled anti-CD11b (#M 1/70, RUO, IgG2b; 1 μg/ml) (all from BD Biosciences).
Proteins. A recombinant murine SAP from mouse myeloma cell line NSO was used (R&D Systems). Native SAP from human serum was purchased by Merck-Millipore. […] Purity of the recombinant protein was assessed by SDS-PAGE followed by silver staining. […] SAP levels were measured in mouse plasma by ELISA (DuoSet ELISA; R&D Systems). Murine TNF-α, CCL2, MPO were measured by ELISA (DuoSet ELISA; R&D Systems). […]

With “human native SAP: Native SAP from human serum purchased by Merck-Millipore; Serum Amyloid P component, SEQ ID NO: 1” the microbicidal activity ([1]; Apcs−/− mouse plasma) was “increase of microbicidal activity”, the “SAP effect on microbicidal activity” value ([1]; human serum depleted of C1q) was “abolished” and the “SAP effect on microbicidal activity” value ([1]; human serum depleted of C3) was “abolished”. For the same molecule, the microbicidal activity ([1]; wt mouse plasma) was “increase of microbicidal activity”.

B1: recombinant murine SAP: recombinant murine SAP from mouse myeloma cell line NSO (R&D Systems) (protein, UniProt P12246 21-224, looked up)
Serum amyloid P-component: QTDLKRKVFVFPRESETDHVKLIPHLEKPLQNFTLCFRTYSDLSRSQSLFSYSVKGRDNELLIYKEKVGEYSLYIGQSKVTVRGMEEYLSPVHLCTTWESSSGIVEFWVNGKPWVKKSLQREYTVKAPPSIVLGQEQDNYGGGFQRSQSFVGEFSDLYMWDYVLTPQDILFVYRDSPVNPNILNWQALNYEINGYVVIRPRVWD
For B1, the “MPO level in BALFs” value [2] was “normalized”, the “TNF-α level in BALFs” value [2] was “normalized” and the “neutrophil number in BALFs” value [2] was “normalized”.
